Test results published in patent US10857201B2, “NNIF and nNIF-related peptides and related methods” (UNIVERSITY OF UTAH RESEARCH FOUNDATION, priority 2016, dated 2020).

Tests used:
[1] = tested on: NET formation in E. coli peritonitis; experiment: Mouse model of E. coli peritonitis (in vivo NET formation); settings: C57BL/6 mice, 10 mg/kg i.p. 1 hour before E. coli i.p., 3 hours
From the text: FIG. 8A depicts results of peritoneal fluid NET formation (red fluorescence, yellow arrow) assessed by live cell imaging (60× magnification, scale bar=50 μm) and histone H3 release (red dashed line=baseline arbitrarily set at 1). Three mice per group. One way ANOVA with Tukey's post hoc testing, ***P<0.001 for CRISPP and nNIF versus CRISPP-SCR.
FIG. 8B depicts results of NET formation on the surfaces of peritoneal membranes (red fluorescence, yellow arrows) that was quantified by counting the number of NETs that crossed standardized grid lines in […] (60× magnification; scale bar=50 μm) using IMAGEJ™ software. A second experiment yielded a similar pattern. FIGS. 8A and 8B depict C57BL/6 mice that were not pretreated or pretreated with nNIF, CRISPP, or CRISPP-SCR (10 mg/kg i.p.; 1 hour) and were inoculated with E. coli (4.5×10^7 bacteria i.p.). After 3 hours, the animals were sacrificed, and peritoneal fluid (FIG. 8A) and membranes (FIG. 8B) were collected for analysis.
FIG. 8C depicts C57BL/6 mice that were not pretreated (left two bars) or that were pretreated with CRISPP, nNIF, or CRISPP-SCR, and that were inoculated with E. coli i.p. as in FIGS. 8A and 8B. Neutrophil numbers in peritoneal fluid were counted after 3 hours (3-5 mice/group). […]
FIG. 8E depicts peritoneal fluid NET formation, imaged and measured as in FIG. 8A (10 mice/group). *P<0.05 for CRISPP/E. coli and nNIF/E. coli compared to CRISPP-SCR/E. coli and E. coli.
FIG. 8F depicts NET formation on peritoneal membrane surfaces, imaged and quantitated as in FIG. 8B (3 mice in each group). *P<0.05 for E. coli versus control (red dashed line); **P<0.01 for CRISPP-SCR/E. coli versus control; †P<0.05 for CRISPP/E. coli and nNIF/E. coli versus CRISPP-SCR/E. coli. One way ANOVA with Tukey's post-hoc testing applied in FIGS. 8E and 8F. In FIGS. 8E and 8F, Swiss-Webster mice that were not pretreated or that were pretreated with nNIF, CRISPP, or CRISPP-SCR were inoculated with E. coli i.p. as in FIGS. 8A and 8B. After 3 hours, peritoneal fluid and membranes were collected. FIGS. 8A-8F indicate that nNIF and CRISPP inhibit in vivo NET formation.
(§1) C57/BL6 or Swiss-Webster mice were pretreated in blinded fashion with CRISPP (10 mg/kg), nNIF (10 mg/kg), or CRISPP-SCR (10 mg/kg) by i.p. injection 1 hour prior to infection (E. coli, 4.5×10^7 cfu/mouse, i.p.) or inoculation (LPS, 25 mg/kg, i.p.) (SIGMA-ALDRICH®). Control mice were injected with saline alone. The mice were sacrificed in a CO2 chamber 3 hours post-infection/inoculation, and the peritoneal fluid and membrane samples were harvested. Briefly, the abdomen was disinfected and opened in the midline without injuring the muscle. The peritoneal cavity was lavaged with sterile saline solution (1 mL) and analyzed for in vivo NET formation, bacteriology, and leukocyte accumulation. NETs in the peritoneal fluid were qualitatively and quantitatively analyzed using live cell imaging with confocal microscopy and NET-associated histone H3 release assays. NETs on the serosal surface of the peritoneal membrane were assessed quantitatively using live cell imaging, followed by standardized grid analysis of five randomly selected high-power visual fields per tissue sample (IMAGEJ™ software, NIH). Peritoneal bacterial colony forming unit (cfu) counts were quantified by permeabilizing all recovered leukocytes with 0.1% Triton X-100 for 10 minutes and performing serial dilutions and bacterial cultures on 5% sheep blood agar plates (HARDY DIAGNOSTICS™). After a 24-hour incubation, bacterial counts were determined. Total leukocyte counts in the peritoneal lavage were determined in Neubauer chambers using an optical microscope after dilution in Turk's solution (2% acetic acid). Differential leukocyte analysis was performed using a 60× oil immersion objective to assess morphology of cyto-centrifuged cells stained with May-Gruenwald-Giemsa dye. All mice were included in the final analysis.

[2] = tested on: LPS-induced peritoneal NET formation; experiment: Mouse model of LPS-induced peritonitis (in vivo NET formation); settings: C57BL/6 mice, i.p. LPS
Experimental: as §1

[3] = tested on: C57BL/6 mice challenged with LPS; experiment: Mouse model of systemic inflammation induced by LPS (endotoxemia), survival; format: in vivo; settings: i.p. LPS, first experiment, n=6 per group
Experimental: Animals with no treatments or given LPS alone were studied in parallel (n≥10 mice for each condition). **P<0.01, log-rank (Mantel-Cox) statistical tool used. The survival difference between nNIF-LPS and CRISPP-LPS compared to CRISPP-SCR-LPS trended toward significance (§ P=0.051).
Control mice were i.p. injected with saline alone. Fluid resuscitation and antibiotic treatment were not used in these experiments. Survival was assessed over 50 or 72 hour intervals. All mice were included in the final survival analysis.

[4] = tested on: neutrophil extracellular trap (NET) formation; experiment: In vitro NET formation by stimulated human PMNs (live cell imaging, NET-associated histone H3 release); format: cell-based
Experimental: Qualitative assessment of NET formation was performed as previously reported (see Yost C C, et al., Blood. 2009; 113 (25):6419-27 and McInturff A M, et al., Blood. 2012; 120 (15):3118-25). Briefly, primary PMNs isolated from preterm infants, healthy term infants, and healthy adults (2×10^6 cells/mL) were incubated with control buffer or stimulated with indicated agonists or bacteria for 1 hour at 37° C. in 5% CO2/95% air on glass coverslips coated with poly-L-lysine. For selected experiments, primary PMNs were pre-incubated with autologous plasma, cord blood plasma, nNIF (0.2-70 nM), CRISPP (0.2-70 nM), nNIF-SCR (1 nM), or CRISPP-SCR (1 nM) for one hour prior to stimulation. After pre-incubation and/or stimulation, PMNs were gently washed with PBS and incubated with a mixture of cell permeable (SYTO® Green, MOLECULAR PROBES®) and impermeable (SYTOX® Orange, MOLECULAR PROBES®) DNA fluorescent dyes. Confocal microscopy was accomplished using a FV1000 IX81 confocal microscope and FLUOVIEW™ software (OLYMPUS™). Both 20× and 60× objectives were used. Z-series images were obtained at a step size of 1 μm over a range of 20 μm for each field. FLUOVIEW™ and ADOBE™ PHOTOSHOP™ CS2 software was used for image processing.
Using BSL 2 safety protocols, primary PMNs isolated from healthy adults (2×10^6 cells/mL) were incubated with mock infection buffer or live dengue virus (M010.05) as for live cell imaging. After a 1-hour incubation, the infected PMNs were fixed with 2% p-FA for 10 minutes prior to incubation with fluorescently-labeled, cell-permeable and cell-impermeable DNA dyes, and imaged as for live cell imaging using confocal microscopy.
NET-associated histone H3 content was determined as previously described (see McInturff A M, et al., Blood. 2012; 120 (15):3118-25). After live cell imaging of control and stimulated primary PMNs (2×10^6/mL; various agonists), the cells were incubated with PBS containing DNase (40 U/mL) for 15 minutes at room temperature to break down and release NETs formed in response to stimulation. The supernatant was gently removed and centrifuged at 420×g for 5 minutes. The cell-free supernatant was then mixed 3:1 with 4× Laemmli buffer prior to western blotting. A polyclonal primary antibody against human histone H3 protein (CELL SIGNALING®) and infrared-conjugated secondary antibodies (LI-COR®) were used. Imaging and densitometry were performed on the ODYSSEY® infrared imaging system)(LI-COR®). This assay was previously validated as a surrogate for NET formation under in vitro conditions (see McInturff A M, et al., Blood. 2012; 120 (15):3118-25) as employed in the present studies.
Without being bound by any specific theory, it was hypothesized that placentally expressed HTRA1, a serine protease, regulates the formation of NET-inhibitory peptides through cleavage of AAT. To test this hypothesis, term and preterm placenta were assessed for HTRA1 expression via western blotting. HTRA1 and AAT plasma expression from term and preterm infants and adults were determined by ELISA. Bioactive (0.5 μg) or placental eluted HTRA1 was incubated with AAT (8 μM) for 18 hours at 37° C. Carboxy-terminus fragments of AAT were detected using western blotting and mass spectrometry. The reaction products were incubated for 1 hour with PMNs isolated from healthy adults prior to LPS stimulation (100 ng/mL) and assessed for NET formation using live cell imaging. Reactive oxygen species were assessed using flow cytometry, chemotaxis using a modified Boyden chamber assay, and bacterial killing using E. coli.

## V_MDITPMQVGPLKMKPKVIFNPFKLFENF [CRISPP-SCR, scrambled control peptide of CRISPP, reference compound]
[1]
  NET formation by peritoneal fluid PMNs: not
  deployment of NETs on the peritoneal surface: not
[2]
  LPS-induced peritoneal NET formation: not
[3]
  animals alive at 50 hours: 30%
[4]; PMA 20 nM, peptides 1 nM, 1 hour preincubation
  PMA-stimulated NET deployment: not
[4]; adult PMNs preincubated with agent, LPS 100 ng/mL, 1 hour
  NET formation triggered by LPS: does not
